Some test systems named below: COLO 205 colon; EKVX NSCLC; HCC-2998 colon; HCT-116 colon; HOP-62 NSCLC; KM12 colon; MCF7 breast; MDA-MB-231 breast; MDA-MB-435; NCI-H460 lung; OVCAR-5 ovarian; SF-268 CNS; SK-MEL-28 melanoma; SNB-19 CNS; SNB-75 CNS; SR leukemia; T-47D breast; TK-10 renal; U251 CNS; UACC-62 melanoma.
Common to all, as to assay: NCI-60 cell line screen, 48 h

SMILES strings stand for the structures.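 Five concentrations, 48 hours, 96-well plates. At the TGI there is no net growth.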

Take `Nc1nc(Cl)cc(NCC2(CO)CCCC2)n1`: the TGI with COLO 205 colon, with EKVX NSCLC, in the assay on HCC-2998 colon, in the assay with HCT-116 colon, in the assay on HOP-62 NSCLC and in the assay with KM12 colon was over 100 µM in each case. For the same compound, the TGI in the assay with MCF7 breast, in the assay with MDA-MB-231 breast, in the assay with MDA-MB-435, in the assay with NCI-H460 lung, in the assay with OVCAR-5 ovarian and in the assay with SF-268 CNS was over 100 µM each time. Further, the TGI with SK-MEL-28 melanoma, in the assay on SNB-19 CNS, in the assay on SNB-75 CNS, with SR leukemia, in the assay on T-47D breast and in the assay on TK-10 renal was over 100 µM in each case. The TGI with U251 CNS and in the assay with UACC-62 melanoma was over 100 µM each time.
For the compound `C[N+]12CCCCC1C(CN1C(=O)Cc3c4ccccc4c(c4ccccc34)CC1=O)CCC2` (stereo not given), the TGI in the assay with COLO 205 colon, in the assay with EKVX NSCLC, in the assay on HCC-2998 colon, with HCT-116 colon, in the assay with HOP-62 NSCLC and with KM12 colon was over 100 µM throughout. Also, the TGI in the assay on MCF7 breast, in the assay on MDA-MB-231 breast, in the assay on MDA-MB-435, with NCI-H460 lung, in the assay on OVCAR-5 ovarian and with SF-268 CNS was over 100 µM in each case. Moreover, the TGI in the assay on SK-MEL-28 melanoma, in the assay with SNB-19 CNS, in the assay on SNB-75 CNS, with SR leukemia, in the assay on T-47D breast and in the assay on TK-10 renal was over 100 µM in each case. For the same compound, the TGI in the assay with U251 CNS and in the assay with UACC-62 melanoma was over 100 µM in each case.
`COC(=O)C1=C(C)NC(C)=C(C(=O)OC)C1c1nc2sccn2c1[N+](=O)[O-]`: the TGI in the assay on COLO 205 colon, with EKVX NSCLC, in the assay with HCC-2998 colon, in the assay on HCT-116 colon, in the assay with HOP-62 NSCLC and in the assay on KM12 colon was over 100 µM throughout. Also, the TGI in the assay on MCF7 breast, in the assay with MDA-MB-231 breast, in the assay on MDA-MB-435, with NCI-H460 lung, in the assay on OVCAR-5 ovarian and in the assay on SF-268 CNS was over 100 µM each time. Also, the TGI in the assay on SK-MEL-28 melanoma, in the assay with SNB-19 CNS, in the assay on SNB-75 CNS, in the assay with SR leukemia, in the assay with T-47D breast and in the assay on TK-10 renal was over 100 µM in each case. The TGI with U251 CNS and in the assay with UACC-62 melanoma was over 100 µM throughout.
As to `C=CCOc1ccc(C2C(C(=O)OCC)C(=O)CC(C)(O)C2C(=O)OCC)cc1OC` (stereo not given), the TGI with COLO 205 colon, in the assay with EKVX NSCLC, with HCC-2998 colon, in the assay on HCT-116 colon, in the assay with HOP-62 NSCLC and with KM12 colon was over 100 µM each time. Besides, the TGI in the assay with MCF7 breast, in the assay with MDA-MB-231 breast, with MDA-MB-435, in the assay with NCI-H460 lung, with OVCAR-5 ovarian and with SF-268 CNS was over 100 µM each time. For the same compound, the TGI in the assay with SK-MEL-28 melanoma, in the assay with SNB-19 CNS, with SNB-75 CNS, in the assay with SR leukemia, in the assay on T-47D breast and in the assay on TK-10 renal was over 100 µM throughout. Besides, the TGI in the assay with U251 CNS and in the assay with UACC-62 melanoma was over 100 µM throughout.
With `C#C[C@]1(O)CC[C@H]2[C@@H]3CCC4=C/C(=N/OC(=O)c5cccc6c(=O)c7ccccc7[nH]c56)CC[C@@H]4[C@H]3CC[C@@]21C`, the TGI with COLO 205 colon was 77.1 µM; with EKVX NSCLC, over 100 µM; in the assay with HCC-2998 colon, over 100 µM; in the assay on HCT-116 colon, over 100 µM; in the assay on HOP-62 NSCLC, over 100 µM; with KM12 colon it was over 100 µM. Further, the TGI in the assay with MCF7 breast, in the assay on MDA-MB-231 breast, in the assay with MDA-MB-435, with NCI-H460 lung, in the assay on OVCAR-5 ovarian and in the assay with SF-268 CNS was over 100 µM in each case. Moreover, the TGI was over 100 µM with SK-MEL-28 melanoma; over 100 µM in the assay with SNB-19 CNS; over 100 µM with SNB-75 CNS; 33.2 µM in the assay with SR leukemia; 91.1 µM in the assay with T-47D breast; over 100 µM with TK-10 renal. The TGI in the assay with U251 CNS and in the assay on UACC-62 melanoma was over 100 µM in each case.
Turning to `Cc1ccc2c(c1)C(=O)C1(C2)Cc2cccc(C)c2C1=O` (stereo not given), the TGI in the assay on COLO 205 colon, with EKVX NSCLC, in the assay with HCC-2998 colon, with HCT-116 colon, in the assay on HOP-62 NSCLC and in the assay with KM12 colon was over 100 µM throughout. Further, the TGI in the assay with MCF7 breast, in the assay with MDA-MB-231 breast, in the assay with MDA-MB-435, in the assay with NCI-H460 lung, with OVCAR-5 ovarian and in the assay with SF-268 CNS was over 100 µM throughout. Also, the TGI with SK-MEL-28 melanoma, in the assay on SNB-19 CNS, in the assay with SNB-75 CNS, with SR leukemia, in the assay on T-47D breast and in the assay with TK-10 renal was over 100 µM each time. For the same compound, the TGI with U251 CNS and in the assay on UACC-62 melanoma was over 100 µM in each case.
Consider `CC12CCC(O)CC1CCC1C2CCC2(C)C(C(=O)CC(O)C(F)(F)F)CCC12` (stereo not given), for which the TGI in the assay on COLO 205 colon is 33.1 µM; in the assay with EKVX NSCLC, 98.9 µM; in the assay on HCC-2998 colon, 80 µM; with HCT-116 colon, over 100 µM; in the assay with HOP-62 NSCLC it was over 95.1 µM; in the assay with KM12 colon, over 100 µM. Moreover, the TGI with MCF7 breast is over 100 µM; in the assay on MDA-MB-231 breast it was 98.2 µM; in the assay with MDA-MB-435 it was over 100 µM; in the assay on NCI-H460 lung it was over 100 µM; in the assay on OVCAR-5 ovarian, over 76.5 µM; in the assay on SF-268 CNS, over 100 µM. For the same compound, the TGI is over 100 µM in the assay with SK-MEL-28 melanoma; 69.6 µM with SNB-19 CNS; 81.1 µM with SNB-75 CNS; 11.2 µM in the assay on SR leukemia; over 100 µM in the assay with T-47D breast; over 100 µM in the assay with TK-10 renal. Moreover, the TGI in the assay on U251 CNS and in the assay with UACC-62 melanoma was over 100 µM in each case.

For the origin of these results see PubChem BioAssay (NCI).
